Source: patent publication US7863446B2, “Heterocycles” (Orchid Research Laboratories Limited, priority 2006, dated 2011)

Columns and labels:
TNF-α = assay: In vitro measurement of TNF-α in human PBMC (LPS stimulated); assay type: cell-based; settings: for inhibition at 1 µM: NA = No activity, read-out: TNF-α Inhibition (%) at Conc. (1 μM); for inhibition at 10 µM: read-out: TNF-α Inhibition (%) at Conc. (10 μM)
Description: In Vitro Measurement of Tumor Necrosis Factor Alpha (TNF-α)
This assay determines the effect of test compounds on the production of TNF α in human Peripheral Blood Mononuclear Cells (PBMC). Compounds were tested for their ability to inhibit the activity of TNF α in human PBMC. PBMC were isolated from blood (of healthy volunteers) using BD Vacutainer CPT™ (Cell preparation tube, BD Bio Science) and suspended in RPMI medium (Physiol. Res. 52: 593-598, 2003). The test compounds were pre-incubated with PBMC (0.5 million/incubation well) for 15 minutes at 37° C. and then stimulated with Lipopolysaccharide (Escherichia coli: B4; 1 μg/ml) for 18 hours at 37° C. in 5% CO2. The levels of TNF-α in the cell culture medium were estimated using enzyme-linked immunosorbent assay performed in a 96 well format as per the procedure of the manufacturer (Cayman Chemical, Ann Arbor, USA).

IL-6 = assay: In vitro measurement of IL-6 in human PBMC (LPS stimulated); assay type: cell-based; settings: for inhibition at 1 µM: read-out: IL-6 Inhibition (%) Conc. (1 μM); for inhibition at 10 µM: read-out: IL-6 Inhibition (%) Conc. (10 μM)
Description: In Vitro Measurement of Interleukin-6(IL-6)
This assay determins the effect of test compounds on the production of IL-6 in human PBMC (Physiol. Res. 52: 593-598, 2003). Compounds were tested for their ability to inhibit the activity of IL-6 in human PBMC. PBMC were isolated from blood using BD Vacutainer CPT™ Cell preparation tube (BD Bio Science) and suspended in RPMI medium. The test compounds were pre-incubated with PBMC (0.5 million/incubation well) for 15 minutes at 37° C. and then stimulated with Lipopolysaccharide (Escherichia coli: B4; 1 μg/ml) for 18 hours at 37° C. in 5% CO2. The levels of IL-6 in cell culture medium were estimated using enzyme-linked immunosorbent assay performed in a 96 well format as per the procedure of the manufacturer (Cayman Chemical, Ann Arbor, USA).

[1] = molecular target: purified recombinant COX-1 (Homo sapiens, UniProt P23219); assay: COX-1 enzyme based assay; assay type: biochemical; settings: NA = No activity, read-out: % Inhibition in rEnzyme Assay COX-1
Sequence of purified recombinant COX-1 (P23219 24-599): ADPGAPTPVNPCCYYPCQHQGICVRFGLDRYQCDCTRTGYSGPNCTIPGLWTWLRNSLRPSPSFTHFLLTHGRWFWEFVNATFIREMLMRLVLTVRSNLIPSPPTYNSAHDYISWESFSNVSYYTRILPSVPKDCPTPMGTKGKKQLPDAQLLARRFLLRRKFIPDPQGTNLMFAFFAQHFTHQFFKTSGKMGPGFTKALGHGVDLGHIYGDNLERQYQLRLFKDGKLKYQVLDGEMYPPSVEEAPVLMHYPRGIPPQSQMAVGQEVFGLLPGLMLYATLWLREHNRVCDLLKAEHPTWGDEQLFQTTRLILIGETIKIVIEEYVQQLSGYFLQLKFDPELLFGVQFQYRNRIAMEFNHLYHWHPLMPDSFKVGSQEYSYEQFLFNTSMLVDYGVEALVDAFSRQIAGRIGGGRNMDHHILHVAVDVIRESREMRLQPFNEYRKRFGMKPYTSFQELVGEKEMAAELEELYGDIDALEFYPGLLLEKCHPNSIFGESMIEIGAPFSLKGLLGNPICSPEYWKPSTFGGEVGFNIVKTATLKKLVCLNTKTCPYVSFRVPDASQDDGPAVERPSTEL
Description: (§1) COX-1 and COX-2 Enzyme Based Assay
(§2) COX-1 and COX-2 enzyme based assays were carried out to check the inhibitory potential of the test compounds on the production of prostaglandin by purified recombinant COX-1/COX-2 enzyme (Proc. Nat. Acad. Sci. USA, 88, 2692-2696, 1991; J. Clin. Immunoassay 15, 116-120, 1992) In this assay, the potential of the test compound to inhibit the production of prostaglandin either by COX-1 or COX-2 from arachidonic acid (substrate) was measured. This was an enzyme based in-vitro assay to evaluate selective COX inhibition with good reproducibility.
(§3) Arachidonic acid was converted to PGH2 (Intermediate product) by COX1/COX-2 in the presence or absence of the test compound. The reaction was carried out at 37° C. and after 2 minutes it was stopped by adding 1M HCl. Intermediate product PGH2 was converted to a stable prostanoid product PGF2αby SnCl2 reduction. The amount of PGF2α, produced in the reaction was inversely proportional to the COX inhibitory potential of the test compound. The prostanoid product was quantified via enzyme immunoassay (EIA) using a broadly specific antibody that binds to all the major forms of prostaglandin, using Cayman ELISA kit as per the procedure outlined by the manufacturer (Cayman Chemicals, Ann Arbor, USA).

[2] = molecular target: T1, purified recombinant COX-2 (Homo sapiens, UniProt P35354); assay: COX-2 enzyme based assay; assay type: biochemical; settings: NA = No activity, read-out: % Inhibition in rEnzyme Assay COX-2
T1 sequence (P35354 18-604): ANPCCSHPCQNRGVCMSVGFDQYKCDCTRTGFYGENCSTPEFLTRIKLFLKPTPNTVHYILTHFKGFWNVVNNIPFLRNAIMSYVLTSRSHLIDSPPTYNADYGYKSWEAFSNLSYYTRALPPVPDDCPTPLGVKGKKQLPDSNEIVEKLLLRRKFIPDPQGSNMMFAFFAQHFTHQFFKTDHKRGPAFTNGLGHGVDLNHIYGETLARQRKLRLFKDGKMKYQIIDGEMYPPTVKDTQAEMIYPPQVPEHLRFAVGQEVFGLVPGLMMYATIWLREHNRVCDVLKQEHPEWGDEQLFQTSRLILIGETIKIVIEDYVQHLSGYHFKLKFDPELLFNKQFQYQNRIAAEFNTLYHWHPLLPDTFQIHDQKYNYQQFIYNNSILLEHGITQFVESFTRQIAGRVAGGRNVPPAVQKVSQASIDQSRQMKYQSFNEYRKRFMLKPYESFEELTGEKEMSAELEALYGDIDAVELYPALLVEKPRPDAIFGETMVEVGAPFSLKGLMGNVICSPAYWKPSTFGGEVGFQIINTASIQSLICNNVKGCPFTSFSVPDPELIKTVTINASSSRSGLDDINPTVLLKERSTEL
Description: as §1, §2, §3

| Compound | inhibition at 1 µM (TNF-α) [%] | inhibition at 10 µM (TNF-α) [%] | other results |
| --- | --- | --- | --- |
| NNc1nc(C(F)(F)F)nc(-c2cccnc2)c1-c1ccccc1 [Example 11, 4-Hydrazino-5-phenyl-6-pyridin-3-yl-2-(trifluoromethyl)pyrimidine] | 12.7 | 50.7 |  |
| NNc1nc(C(F)(F)F)nc(-c2ccncc2)c1-c1ccccc1 [Example 12, 4-Hydrazino-5-phenyl-6-pyridin-4-yl-2-(trifluoromethyl)pyrimidine] | 34.8 | 78.4 |  |
| NNc1nc(C(F)(F)F)nc(-c2ccncc2)c1-c1ccc(F)cc1 [Example 13, 5-(4-Fluorophenyl)-4-hydrazino-6-pyridin-4-yl-2-(trifluoromethyl)pyrimidine] | 25.8 | 35.3 |  |
| CS(=O)(=O)c1ccc(-c2nc(C(F)(F)F)nc(OS(=O)(=O)CCCCl)c2-c2ccccc2)cc1 [Example 19, 6-[4-(Methylsulfonyl)phenyl]-5-phenyl-2-(trifluoromethyl)pyrimidin-4-yl-3-chloropropane-1-sulfonate] |  |  | inhibition at 1 µM (IL-6): 27.9%; inhibition at 10 µM (IL-6): 41.9% |
| CS(=O)(=O)c1ccc(-c2nc(C(F)(F)F)nc(OS(=O)(=O)c3ccc(OC(F)(F)F)cc3)c2-c2ccccc2)cc1 [Example 24, 6-[4-(Methylsulfonyl)phenyl]-5-phenyl-2-(trifluoromethyl)pyrimidin-4-yl-4-trifluoromethoxybenzenesulfonate] | 53.9 | 32.9 |  |
| CS(=O)(=O)c1ccc(-c2nc(C(F)(F)F)nc(OS(=O)(=O)c3cccs3)c2-c2ccccc2)cc1 [Example 25, 6-[4-(Methylsulfonyl)phenyl]-5-phenyl-2-(trifluoromethyl)pyrimidin-4-yl thiophene-2-sulfonate] | 38.8 | 94 |  |
| CS(=O)(=O)c1ccc(-c2nc(C(F)(F)F)nc(OS(=O)(=O)c3ccc(F)cc3)c2-c2ccccc2)cc1 [Example 26, 6-[4-(Methylsulfonyl)phenyl]-5-phenyl-2-(trifluoromethyl)pyrimidin-4-yl-4-fluorobenzenesulfonate] | 32.7 | 50.8 |  |
| CS(=O)(=O)c1ccc(-c2nc(C(F)(F)F)nc(OS(=O)(=O)c3ccccc3F)c2-c2ccccc2)cc1 [Example 27, 6-[4-(Methylsulfonyl)phenyl]-5-phenyl-2-(trifluoromethyl)pyrimidin-4-yl-2-fluorobenzenesulfonate] | 43.5 | 51.9 |  |
| NS(=O)(=O)c1ccc(-c2nc(C(F)(F)F)nc(N3CCNCC3)c2-c2ccc(F)cc2)cc1 [Example 31, 4-[5-(4-Fluorophenyl)-6-piperazin-1-yl-2-(trifluoromethyl)pyrimidin-4-yl]benzenesulfonamide] | 37.4 | 62.5 |  |
| CNS(=O)(=O)c1ccc(-c2c(-c3ccc(S(C)(=O)=O)cc3)nc(C(F)(F)F)nc2N2CCOCC2)cc1 [Example 34, 4-{4-(Morpholin-4yl)-6-[4-(methylsulfonyl)phenyl]-2-(trifluoromethyl)pyrimidin-5-yl}-N-methylbenzenesulfonamide] |  | 80.9 |  |
| Cc1cnc(C(=O)N2CCN(c3nc(C(F)(F)F)nc(-c4ccc(S(C)(=O)=O)cc4)c3-c3ccccc3)CC2)cn1 [Example 36, 4-[4-(Methylsulfonyl)phenyl]-6-{4-[(5-methylpyrazin-2-yl)carbonyl]piperazin-1-yl}-5-phenyl-2-(trifluoromethyl)pyrimidine] | 51.3 | 26.9 |  |
| NS(=O)(=O)c1cccc(-c2c(-c3ccccc3)nc(C(F)(F)F)nc2N2CCN(c3ccccn3)CC2)c1 [Example 58] |  |  | inhibition at 1 µM ([1]; 1 μM): 10.2%; inhibition at 10 µM ([1]; 10 μM): 9.59%; inhibition at 1 µM ([2]; 1 μM): 11.2%; inhibition at 10 µM ([2]; 10 μM): 2.62% |
| CCOC(=O)C1CCN(c2nc(C(F)(F)F)nc(-c3ccc(F)cc3)c2-c2cccc(S(N)(=O)=O)c2)CC1 [Example 59, Ethyl-1-[5-(3-aminosulfonylphenyl)-6-(4-fluorophenyl)-2-(trifluoromethyl)pyrimidin-4-yl]piperidine-4-carboxylate] |  |  | inhibition at 1 µM (IL-6): 26.1%; inhibition at 10 µM (IL-6): 36.8% |
| CCOC(=O)C1CCN(c2nc(C(F)(F)F)nc(-c3ccccc3)c2-c2cccc(S(N)(=O)=O)c2)CC1 [Example 61, Ethyl 1-[6-phenyl-5-(3-aminosulfonylphenyl)1-2-(trifluoromethyl)pyrimidin-4-yl]piperidine-4-carboxylate] |  |  | inhibition at 1 µM (IL-6): 24.5%; inhibition at 10 µM (IL-6): 54.5% |
| COc1cc(N2CCN(c3nc(C(F)(F)F)nc(-c4ccc(F)cc4)c3-c3cccc(S(N)(=O)=O)c3)CC2)nc(OC)n1 [Example 66, 4-[4-(2,6-Dimethoxypyrimidin-4-yl)piperazin-1-yl]-5-(3-aminosulfonylphenyl)-6-(4-fluorophenyl)-2-(trifluoromethyl)pyrimidine] | 57.9 | 80.7 |  |
| CS(=O)(=O)N1CCN(c2nc(C(F)(F)F)nc(-c3ccc(F)cc3)c2-c2cccc(S(N)(=O)=O)c2)CC1 [Example 78, 3-[4-[4-(Methylsulfonyl)piperazin-1-yl]-6-(4-fluorophenyl)-2-(trifluoromethyl)pyrmidin-5-yl]benzenesulfonamide] |  |  | inhibition at 1 µM (IL-6): 22.3%; inhibition at 10 µM (IL-6): 25.3% |
| NS(=O)(=O)c1cccc(-c2c(-c3ccccc3)nc(C(F)(F)F)nc2N2CCN(c3ccc([N+](=O)[O-])cn3)CC2)c1 [Example 117, 3-[6-{4-[5-(Nitro)pyridin-2-yl]piperazin-1-yl}-4-phenyl-2-(trifluoromethyl)pyrimidin-5-yl]benzenesulfonamide] | 69.7 | 86.5 |  |
| CC(=O)Nc1ccc(N2CCN(c3nc(C(F)(F)F)nc(-c4ccc(S(C)(=O)=O)cc4)c3-c3ccc(F)cc3)CC2)nc1 [Example 119, 4-[5-(Acetylamino)pyridin-2-yl]piperazin-1-yl-5-(4-fluorophenyl)-6-[4-(methylsulfonyl)phenyl]-2-(trifluoromethyl)pyrimidine] | 88.9 | 91.5 |  |
